Publication PMC7782793, “Hydroxamic acid-modified peptide microarrays for profiling isozyme-selective interactions and inhibition of histone deacetylases” (Nature Communications, 2021)
Non-standard residues stand in square brackets, D forms with d. Residues, ends and D or L forms follow the SMILES beside them. *: point of attachment. Asu = N[C@@H](CCCCCC(=O)O)C(=O)O; NHOH = ON*

Assays:
HDAC4 = molecular target: T1, HDAC4 (Homo sapiens, UniProt P56524); test: HDAC inhibition assay (fluorogenic, Ac-Leu-Gly-Lys(Tfa)-AMC); type: biochemical; conditions: 2 internal replicates; for remaining activity at 5 µM / remaining activity at 50 µM: read-out: residual enzymatic activity relative to control wells
T1 construct: purchased BPS Bioscience 50004

HDAC2 = molecular target: T2, HDAC2 (Homo sapiens, UniProt Q92769); test: Recombinant HDAC µSPOT microarray binding assay;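 note: Cellulose-bound peptide spots on slides incubated with six HDAC enzyme concentrations, binding intensity read, four-parameter variable-slope fit, EC50 is enzyme concentration giving half-maximal binding, in HEPES buffer pH 7.4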
T2 construct: HDAC2 (full length, C-terminal His tag, BPS Bioscience, cat. #: 50002); purchased BPS Bioscience 50002
T2 sequence (Q92769 whole entry): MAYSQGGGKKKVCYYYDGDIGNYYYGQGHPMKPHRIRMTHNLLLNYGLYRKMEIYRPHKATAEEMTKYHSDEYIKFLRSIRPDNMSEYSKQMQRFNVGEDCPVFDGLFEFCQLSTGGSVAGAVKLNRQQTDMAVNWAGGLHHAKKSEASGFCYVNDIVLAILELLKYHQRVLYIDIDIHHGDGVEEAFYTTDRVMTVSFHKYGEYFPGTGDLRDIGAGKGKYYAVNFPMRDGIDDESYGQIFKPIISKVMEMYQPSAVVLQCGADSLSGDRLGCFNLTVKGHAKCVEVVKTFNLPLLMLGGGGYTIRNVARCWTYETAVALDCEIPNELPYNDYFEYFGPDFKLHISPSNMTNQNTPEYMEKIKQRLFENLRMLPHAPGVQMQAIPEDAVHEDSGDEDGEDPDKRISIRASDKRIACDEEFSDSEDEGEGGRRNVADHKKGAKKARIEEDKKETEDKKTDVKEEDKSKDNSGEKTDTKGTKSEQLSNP
Method: Experiments were performed twice, data were obtained with Array Analyze software (Active Motif), and data analysis and representation were performed with the GraphPad Prism 7 software. Outliers were curated manually and data were fitted to nonlinear regression [log(agonist) vs. response—variable slope (four parameters)]. […] Non-sigmoidal curves were denoted as not determined (N.D.) The pEC50 values were determined as the concentration of HDAC enzyme required for half-maximal binding signal.

T1 sequence (P56524 627-1084): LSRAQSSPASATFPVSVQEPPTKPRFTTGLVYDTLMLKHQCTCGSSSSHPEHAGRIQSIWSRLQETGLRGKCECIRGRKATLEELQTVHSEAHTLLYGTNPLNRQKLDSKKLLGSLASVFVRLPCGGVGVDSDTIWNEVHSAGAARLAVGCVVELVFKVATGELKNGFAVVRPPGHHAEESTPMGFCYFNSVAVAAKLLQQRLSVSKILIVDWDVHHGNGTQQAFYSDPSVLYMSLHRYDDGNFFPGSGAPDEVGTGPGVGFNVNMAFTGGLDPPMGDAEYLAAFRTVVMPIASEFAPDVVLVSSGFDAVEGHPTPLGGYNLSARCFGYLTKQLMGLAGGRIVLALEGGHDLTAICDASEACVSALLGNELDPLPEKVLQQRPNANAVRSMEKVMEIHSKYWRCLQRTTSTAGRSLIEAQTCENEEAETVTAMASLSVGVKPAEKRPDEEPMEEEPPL

SMILES	residual enzymatic activity relative to control wells (HDAC4; inhibitor 5 µM)	remaining activity at 5 µM (HDAC4; inhibitor 5 µM) [%]	residual enzymatic activity relative to control wells (HDAC4; inhibitor 50 µM)	remaining activity at 50 µM (HDAC4; inhibitor 50 µM) [%]	EC50 (HDAC2) [nM]
CC(=O)NCC(=O)NCC(=O)N[C@@H](CCCCCC(=O)NO)C(=O)N[C@@H](C)C(=O)N[C@@H](CCCNC(=N)N)C(=O)N[C@@H](C)C(=O)N[C@@H](CCCCN)C(=O)N[C@@H](C)C(=O)N[C@@H](CCCCN)C(=O)N[C@H](C(=O)N[C@@H](CCCNC(=N)N)C(=O)N[C@@H](CO)C(=O)N[C@@H](CO)C(=O)N[C@@H](CCCNC(=N)N)C(=O)N[C@@H](C)C(=O)NCC(=O)N[C@@H](Cc1c[nH]c2ccccc12)C(N)=O)[C@@H](C)O [9a] (Ac-GG[Asu](NHOH)ARAKAKTRSSRAGW-NH2)	94.96	97.8	54.4	57.5	1.95
CC(=O)N[C@@H](CC(C)C)C(=O)NCC(=O)N[C@@H](CCCCN)C(=O)NCC(=O)NCC(=O)N[C@@H](C)C(=O)N[C@@H](CCCCCC(=O)NO)C(=O)N[C@@H](CCCNC(=N)N)C(=O)N[C@@H](Cc1c[nH]cn1)C(=O)N[C@@H](CCCNC(=N)N)C(=O)N[C@@H](CCCCN)C(=O)N[C@H](C(=O)N[C@@H](CC(C)C)C(=O)N[C@@H](CCCNC(=N)N)C(=O)N[C@@H](CC(=O)O)C(=O)N[C@@H](CC(N)=O)C(=O)N[C@@H](Cc1c[nH]c2ccccc12)C(N)=O)C(C)C [16a] (Ac-LGKGGA[Asu](NHOH)RHRKVLRDNW-NH2)	96.58	93.6	68.39	67.1	1.45
CC(=O)N1CCC[C@H]1C(=O)N[C@@H](CCCNC(=N)N)C(=O)N[C@@H](CCCCN)C(=O)N[C@@H](CCC(N)=O)C(=O)N[C@@H](CC(C)C)C(=O)N[C@@H](C)C(=O)N[C@H](C(=O)N[C@@H](CCCCN)C(=O)N[C@@H](C)C(=O)N[C@@H](C)C(=O)N[C@@H](CCCNC(=N)N)C(=O)N[C@@H](CCCCCC(=O)NO)C(=O)N[C@@H](CO)C(=O)N[C@@H](C)C(=O)N1CCC[C@H]1C(=O)N[C@@H](C)C(=O)N[C@@H](Cc1c[nH]c2ccccc12)C(N)=O)[C@@H](C)O [14a] (Ac-PRKQLATKAAR[Asu](NHOH)SAPAW-NH2)	82.79	91.8	33.99	41.7	2.82
CC(=O)N[C@@H](C)C(=O)N1CCC[C@H]1C(=O)N[C@@H](C)C(=O)N1CCC[C@H]1C(=O)N[C@@H](CCCCN)C(=O)N[C@@H](CCCCCC(=O)NO)C(=O)NCC(=O)N[C@@H](CO)C(=O)N[C@@H](CCCCN)C(=O)N[C@@H](CCCCN)C(=O)N[C@@H](C)C(=O)N[C@H](C(=O)N[C@H](C(=O)N[C@@H](CCCCN)C(=O)N[C@@H](C)C(=O)N[C@@H](CCC(N)=O)C(=O)N[C@@H](Cc1c[nH]c2ccccc12)C(N)=O)[C@@H](C)O)C(C)C [10a] (Ac-APAPK[Asu](NHOH)GSKKAVTKAQW-NH2)	95.93	100	77.53	80.4	> 25.1
